In ChEMBL document CHEMBL1129673, “Antitumor activity of the R- and S-enantiomers of RS-2-[[hydroxy[[2-[ (octadecyloxy)methyl]tetrahydrofuran-2-yl]methoxy]-phosphinyl]oxy]-N, N,N,-trimethylethylaminium hydroxide inner salt” (1996):

Columns and labels:
Mus musculus [1] = assay: Antitumor activity against mouse macrophages after day 14 at dose 2.50 mg/kg by peroral administration; assay type: functional; settings: dose 2.5 mg/kg; route oral
Mus musculus [2] = assay: Antitumor activity against mouse macrophages after day 7 at dose 2.50 mg/kg by peroral administration; assay type: functional; settings: dose 2.5 mg/kg; route oral
Mus musculus [3] = assay: Mouse survived after 28 days at 2.5 mg/kg; 3/10; assay type: functional
Mus musculus [4] = assay: Antitumor activity against mouse macrophages after day 21 at dose 2.50 mg/kg by peroral administration; assay type: functional; settings: dose 2.5 mg/kg; route oral
Mus musculus [5] = assay: Antitumor activity against mouse macrophages after day 28 at dose 2.50 mg/kg by peroral administration; assay type: functional; settings: dose 2.5 mg/kg; route oral
Mus musculus [6] = assay: Mouse survived after 28 days at 2.5 mg/kg; 8/10; assay type: functional
Mus musculus [7] = assay: Antitumor activity against mouse macrophages after day 28 at dose 0.25 mg/kg by peroral administration; assay type: functional; settings: route oral
[8] = Antitumor activity against Abelson-8.1 cells at concentration 1 ug/mL and at 72 hr using direct cytotoxicity assay.; assay type: functional, Mus musculus
YAC-1 [9] = assay: Antitumor activity against YAC-1 tumor cells at concentration 5 ug/mL and at 72 hr using direct cytotoxicity assay.; assay type: functional, Mus musculus
YAC-1 [10] = assay: Antitumor activity against YAC-1 tumor cells at concentration 5 ug/mL and at 72 hr using Activated Macrophage Cytotoxicity assay.; assay type: functional, Mus musculus
[11] = Antitumor activity against Abelson-8.1 cells at concentration 3 ug/mL and at 72 hr using Activated Macrophage Cytotoxicity assay.; assay type: functional, Mus musculus
L1210 [12] = assay: Antitumor activity against L1210 cells at concentration 5 ug/mL and at 72 hr using direct cytotoxicity assay.; assay type: functional, Mus musculus
YAC-1 [13] = assay: Antitumor activity against YAC-1 tumor cells at concentration 3 ug/mL and at 72 hr using direct cytotoxicity assay.; assay type: functional, Mus musculus
YAC-1 [14] = assay: Antitumor activity against YAC-1 tumor cells at concentration 1 ug/mL and at 72 hr using Activated Macrophage Cytotoxicity assay.; assay type: functional, Mus musculus
Mus musculus [15] = assay: Mouse survived after 28 days at 0.25 mg/kg; 3/10; assay type: functional
P815 [16] = assay: Antitumor activity against P815 cells at concentration 5 ug/mL and at 72 hr using direct cytotoxicity assay.; assay type: functional, Mus musculus
P815 [17] = assay: Antitumor activity against P815 cells at concentration 1 ug/mL and at 72 hr using Activated Macrophage Cytotoxicity assay.; assay type: functional, Mus musculus
L1210 [18] = assay: Antitumor activity against L1210 cells at concentration 5 ug/mL and at 72 hr and at 72 hr using Activated Macrophage Cytotoxicity assay.; assay type: functional, Mus musculus
[19] = Antitumor activity against Abelson-8.1 cells at concentration 1 ug/mL and at 72 hr using Activated Macrophage Cytotoxicity assay.; assay type: functional, Mus musculus
YAC-1 [20] = assay: Antitumor activity against YAC-1 tumor cells at concentration 3 ug/mL and at 72 hr using Activated Macrophage Cytotoxicity assay.; assay type: functional, Mus musculus
YAC-1 [21] = assay: Antitumor activity against YAC-1 tumor cells at concentration 1 ug/mL and at 72 hr using direct cytotoxicity assay.; assay type: functional, Mus musculus
Mus musculus [22] = assay: Antitumor activity against mouse macrophages after day 14 at dose 0.25 mg/kg by peroral administration; assay type: functional; settings: route oral
Mus musculus [23] = assay: Antitumor activity against mouse macrophages after day 7 at dose 0.25 mg/kg by peroral administration; assay type: functional; settings: route oral
P815 [24] = assay: Antitumor activity against P815 cells at concentration 1 ug/mL and at 72 hr using direct cytotoxicity assay.; assay type: functional, Mus musculus
L1210 [25] = assay: Antitumor activity against L1210 cells at concentration 3 ug/mL and at 72 hr using direct cytotoxicity assay.; assay type: functional, Mus musculus
Mus musculus [26] = assay: Mouse survived after 28 days at 2.5 mg/kg; 6/10; assay type: functional
L1210 [27] = assay: Antitumor activity against L1210 cells at concentration 1 ug/mL and at 72 hr using direct cytotoxicity assay.; assay type: functional, Mus musculus
[28] = Antitumor activity against Abelson-8.1 cells at concentration 5 ug/mL and at 72 hr using direct cytotoxicity assay.; assay type: functional, Mus musculus
L1210 [29] = assay: Antitumor activity against L1210 cells at concentration 1 ug/mL and at 72 hr using Activated Macrophage Cytotoxicity assay.; assay type: functional, Mus musculus
L1210 [30] = assay: Antitumor activity against L1210 cells at concentration 3 ug/mL using Activated Macrophage Cytotoxicity assay.; assay type: functional, Mus musculus
Mus musculus [31] = assay: Antitumor activity against mouse macrophages after day 21 at dose 0.25 mg/kg by peroral administration; assay type: functional; settings: route oral
P815 [32] = assay: Antitumor activity against P815 cells at concentration 3 ug/mL and at 72 hr using Activated Macrophage Cytotoxicity assay.; assay type: functional, Mus musculus
[33] = Antitumor activity against Abelson-8.1 cells at concentration 3 ug/mL and at 72 hr using direct cytotoxicity assay.; assay type: functional, Mus musculus
P815 [34] = assay: Antitumor activity against P815 cells at concentration 3 ug/mL and at 72 hr using direct cytotoxicity assay.; assay type: functional, Mus musculus
[35] = Antitumor activity against Abelson-8.1 cells at concentration 5 ug/mL and at 72 hr using Activated Macrophage Cytotoxicity assay.; assay type: functional, Mus musculus
P815 [36] = assay: Antitumor activity against P815 cells at concentration 5 ug/mL and at 72 hr using Activated Macrophage Cytotoxicity assay.; assay type: functional, Mus musculus
L1210 [37] = assay: Antitumor activity against L1210 cells at concentration 5 ug/mL and at 72 hr using Activated Macrophage Cytotoxicity assay.; assay type: functional, Mus musculus
Mus musculus [38] = assay: Mouse survived after 28 days at 0.25 mg/kg; 2/10; assay type: functional
L1210 [39] = assay: Antitumor activity against L1210 cells at concentration 3 ug/mL and at 72 hr using Activated Macrophage Cytotoxicity assay.; assay type: functional, Mus musculus
Mus musculus [40] = assay: Mouse survived after 28 days at 0.25 mg/kg; 8/10; assay type: functional

SMILES | Control (Mus musculus [1]) [%] | Control (Mus musculus [2]) [%] | Control (Mus musculus [4]) [%] | Control (Mus musculus [5]) [%] | Control (Mus musculus [7]) [%] | Viable cells [8] [%] | Viable cells (YAC-1 [9]) [%] | Viable cells (L1210 [12]) [%] | Viable cells (YAC-1 [13]) [%] | Viable cells (P815 [16]) [%] | Viable cells (P815 [17]) [%] | Viable cells [19] [%] | Viable cells (YAC-1 [20]) [%] | Viable cells (YAC-1 [21]) [%] | Control (Mus musculus [22]) [%] | Control (Mus musculus [23]) [%] | Viable cells (P815 [24]) [%] | Viable cells (L1210 [25]) [%] | Viable cells (L1210 [27]) [%] | Viable cells [28] [%] | other results
CCCCCCCCCCCCCCCCCCOC[C@@]1(COP(=O)([O-])OCC[N+](C)(C)C)CCCO1 | 53 | 85 | 21 | 32 |  |  |  |  |  |  |  |  |  |  |  |  |  |  |  |  | Survivors (Mus musculus [3]): 3
CCCCCCCCCCCCCCCCCCOC[C@]1(COP(=O)([O-])OCC[N+](C)(C)C)CCCO1 | 28 | 70 | 8 | 13 |  |  |  |  |  |  |  |  |  |  |  |  |  |  |  |  | Survivors (Mus musculus [6]): 8
CCCCCCCCCCCCCCCCCCOCC1(COP(=O)([O-])OCC[N+](C)(C)C)CCCO1 (racemic; 5) | 38 | 76 | 14 | 21 | 32 | 32 | 8.9 | 8.6 | 26 | 5.3 | 3.4 | 0.4 | 2.5 | 81 | 47 | 82 | 60 | 20 | 100 | 2 | Viable cells (YAC-1 [10]): 1.2%; Viable cells [11]: 0.2%; Viable cells (YAC-1 [14]): 16%; Survivors (Mus musculus [15]): 3; Viable cells (L1210 [18]): 0.9%; Survivors (Mus musculus [26]): 6; Viable cells (L1210 [29]): 9.4%; Viable cells (L1210 [30]): 1.6%; Control (Mus musculus [31]): 20%; Viable cells (P815 [32]): 0.7%; Viable cells [33]: 2.6%; Viable cells (P815 [34]): 13%; Viable cells [35]: 0.1%; Viable cells (P815 [36]): 0.6%
CCCCCCCCCCCCCCCCCCOCC1(COP(=O)([O-])OCC[N+](C)(C)C)CCCO1 (racemic; 8) |  |  |  |  | 37 | 71 | 4.5 | 13 | 14 | 2.8 | 3.1 | 0.5 | 1.6 | 92 | 52 | 90 | 68 | 24 | 84 | 4.6 | Viable cells (L1210 [37]): 1.1%; Survivors (Mus musculus [38]): 2; Viable cells (L1210 [29]): 5.3%; Control (Mus musculus [31]): 21%; Viable cells (P815 [32]): 1.8%; Viable cells [33]: 6.8%; Viable cells (P815 [34]): 20%; Viable cells (L1210 [39]): 1.4%; Viable cells [35]: 0.2%; Viable cells (P815 [36]): 1.3%
CCCCCCCCCCCCCCCCCCOCC1(COP(=O)([O-])OCC[N+](C)(C)C)CCCO1 (racemic; 9) |  |  |  |  | 11 | 8.6 | 9 | 3.2 | 22 | 2.6 | 2.8 | 0.8 | 2.3 | 60 | 19 | 66 | 16 | 7.7 | 55 | 1.8 | Viable cells (YAC-1 [10]): 0.9%; Viable cells [11]: 0.3%; Viable cells (YAC-1 [14]): 11%; Viable cells (L1210 [37]): 0.2%; Viable cells (L1210 [29]): 3.4%; Survivors (Mus musculus [40]): 8; Viable cells (L1210 [30]): 0.6%; Control (Mus musculus [31]): 6%; Viable cells (P815 [32]): 1.1%; Viable cells [33]: 2.1%; Viable cells (P815 [34]): 7%; Viable cells [35]: 0.4%; Viable cells (P815 [36]): 0.3%
